One compound from patent US6902881B2, “Compounds and methods for regulating cell differentiation” (priority 2000, dated 2005) can be followed below.

This test relates to HT 29 Cancer Cells. Put plainly: Distribution of cell cycle stages of HT 29 cancer cells. Type of test: cell-based, human. From the text: The presence of the CDK-inhibitors leads to under phosphorylation of Rb protein. As a consequence, the cells are removed from cycling and the number of cells in G1 increases while those in S and G2 decrease, compared with control, untreated ones. This response of cell cycle kinetics is quite similar to those reported for other agents known to cause a G1, block e.g. troglitazone. Ultimately, proliferation ceases within one to three days. […] This decreased rate persists even after the tetrapyrrole is no longer added to the incubation medium. Finally, twelve days after its removal, proliferation resumes at a brisker rate dividing every 41 hrs. This rate is still slower than that of the control cells that double every 18 hrs. […] In contrast, cellular survival or proliferation is not affected by amounts lower than 10^−7 M biliverdin (not shown).

Molecules are shown by their SMILES.

Consider `C=CC1=C(C)/C(=C/C2=NC(=C\c3[nH]c(/C=C4\NC(=O)C(C)=C4C=C)c(C)c3CCC(=O)O)/C(CCC(=O)O)=C2C)NC1=O` [Biliverdin, biliverdin IXα], for which the “cells in G2” value (control 11) amounted to 7%. The “cells in G1” value (control 42) is 63%. The “cells in S” value (control 47) was 30%.
